Measured values taken from patent publication US20220031712A1, “PREPARATION OF A PHARMACEUTICAL COMPOSITION OF OLODATEROL AND BUDESONIDE” (priority 2020, published 2022).
Counter-ions that a name gives are not always drawn.

Assay: Thermal stability of Samples 1-4 at 60° C. (HPLC content and impurity detection)
Assay type: physicochemical
Description: The thermal stability of samples 1˜4 of example 1 at 60° C. is provided below:
Impurity detection method: • Mobile phase A: accurately weigh 3.17 g of sodium dihydrogen phosphate, add 1 L of pure water to dissolve, adjust the pH of the solution to 3.20 with phosphoric acid. Mobile Phase B: Acetonitrile. • Instrument ID: HPLC. • Column ID: YMC-Triart C18 250*4.6 5 μm. • Detection wavelength: 230 nm. • Flow rate: 1.0 mL/min. • Running time: 35 min.

## COc1ccc(CC(C)(C)NC[C@H](O)c2cc(O)cc3c2OCC(=O)N3)cc1 [OH, Olodaterol hydrochloride]
At pH 5.5 and pH 4.0, pH adjusted with citric acid
  stability of OH in the formulation: relatively stable

## CCCC1O[C@@H]2C[C@H]3[C@@H]4CCC5=CC(=O)C=C[C@]5(C)[C@H]4[C@@H](O)C[C@]3(C)[C@]2(C(=O)CO)O1 (stereo partly drawn) [BD, 11β,21-dihydroxy-16α,17α-(butylidenebis(oxy))pregna-1,4-diene-3,20-dione]
At pH 4.0 and 4.5, pH adjusted with citric acid
  stability of BD in the formulation: relatively stable
